Data reported in US11920157B2, “Applications of butylidenephthalide” (NATIONAL DONG HWA UNIVERSITY, priority 2016, dated 2024).

Tests used:
[1] = system: adipose stem cells; assay: Production of adipose droplets in adipose cells differentiated from adipose stem cells (microscope morphology, oil red stain); format: cell-based; conditions: 7 days
Experimental: A DMEM medium (brand name: GIBCO; product number: 11965092) was used as a basic medium, and rosiglitazone (concentration: 0.5 μM, solvent: dimethyl sulfoxide (DMSO)), insulin (concentration: 170 nM, solvent: culture medium), 3-isobutyl-1-methylxanthine (IBMX; concentration: 0.5 μM, solvent: DMSO) and dexamethasone (concentration: 1 μM, solvent: DMSO) were externally added therein to provide a conditional medium.
The adipose stem cells (ADSCs) were cultivated in a DMEM/F12 medium at 37° C., 5% CO2 for 5 days. […] The results are shown in FIG. 1 (i.e., adipose stem cells (undifferentiated)).
The aforementioned pre-cultivated adipose stem cells provided by Example B1-1 were cultivated in a conditional medium provided by Example A1 at 37° C., 5% CO2 for 7 days to differentiate into adipose cells. […] The results are also shown in FIG. 1 (i.e., adipose cells (differentiated)).
(§1) The adipose cells provided by Example B1-2 were divided into seven groups and independently subjected to the following treatments:
(2) BP-2 group: cells were cultivated in a conditional medium that was externally added with butylidenephthalide (BP) (to a final concentration of 2 μg/mL) for 7 days (butylidenephthalide (BP) was purchased from ECHO CHEMICAL Co., Ltd. (Taiwan); product number: A10353);
(§2) (3) BP-10 group: cells were cultivated in a conditional medium that was externally added with butylidenephthalide (BP) (to a final concentration of 10 μg/mL) for 7 days;
(4) BP-50 group: cells were cultivated in a conditional medium that was externally added with butylidenephthalide (BP) (to a final concentration of 50 μg/mL) for 7 days;
First, the cell morphology of each group in photos taken in Examples B1-1, B1-2 and B1-3 was observed.
Thereafter, the adipose droplets of adipose stem cells (undifferentiated) provided by Example B1-1, adipose cells (differentiated) provided by Example B1-2 and adipose cells in “BP-2 group”, “BP-10 group” and “BP-50 group” provided by Example B1-3 were stained by oil red dye, and the morphology thereof was taken photos and recorded. Then, the number of adipose droplets of adipose cells in each group was quantified.

[2] = system: adipose cells; assay: Oxygen consumption rate and spare respiratory capacity of adipose cells (XF24 extracellular flux analyser); format: cell-based; conditions: 7 days, vs differentiated adipose cells not treated by BP
Description: As described above, different from white adipose cells, the morphology of brown-like adipose cells/brown adipose cells is characterized by (i) containing numerous adipose droplets, (ii) containing a large number of mitochondria and (iii) having highly expressed uncoupling protein 1 (UCP1). […] Therefore, the number and proportion of brown-like adipose cells/brown adipose cells can be conceived by observing the number of adipose droplets in the cells, the oxygen consumption rate of adipose cells and the gene and protein expressions of UCP1.
After a medium was replaced with a fresh medium, the cells were continuously cultivated at 37° C. for 1 hour. Then, the mitochondrial biosynthesis of cells in each group was separately interfered with 25 μM oligomycin, 0.5 μM FCCP and 5 μM rotenone/antimycin A sequentially, and was continuously detected by a XF24 extracellular flux analyser (purchased from Seahorse Bioscience) prior to and during conduction of the aforementioned interference. The oxygen tension and acidification degree in the culture medium were detected by an adjusted probe to further calculate the oxygen consumption rate and spare respiratory capacity. The results of oxygen consumption rate are shown in FIG. 3A, and the results of basic oxygen consumption rate and spare respiratory capacity are shown in FIG. 3B.

[3] = system: UCP1; assay: UCP1 gene (RT-PCR) and UCP1 protein (Western blot) expression in adipose cells; format: cell-based; conditions: 7 days
Experimental: as §1
(1) Control group: cells were cultivated in a conditional medium provided by A1 for 7 days;
as §2
(5) Tofacitinib group: cells were cultivated in a conditional medium that was externally added with tofacitinib (to a final concentration of 2 μM) for 7 days (tofacitinib was purchased from UNI-ONWARD Corp. (Taiwan); product number: PZ0017);
(6) Adenosine group: cells were cultivated in a conditional medium that was externally added with adenosine (to a final concentration of 1 μM) for 7 days (adenosine was purchased from UNI-ONWARD Corp. (Taiwan); product number: A4036); and
(7) Proanthocyanidin group: cells were cultivated in a conditional medium that was externally added with proanthocyanidin (to a final concentration of 10 μM) for 7 days (adenosine was purchased from Hong Jing Co., Ltd. (Taiwan); product number: sc-344976).
The cells in each group provided by Example B1-3 were separately collected, and then the total RNA and protein of the cells were individually extracted for the following experimentation.
The total RNA was subjected to reverse transcription to provide cDNA, and then the expression of UCP1 gene of the cells in each group was analyzed by reverse transcription polymerase chain reaction (RT-PCR). The results are shown in FIG. 4A, wherein FABP4 gene was a biomarker of mature adipose cells, and thus, it was used as an internal control of adipose cells in this experimentation. The actin gene was used as an internal control of all the cells. Furthermore, the expression of UCP1 protein of the cells in each group was analyzed by Western blot. The results are shown in FIG. 4B, wherein FABP4 protein was used as an internal control of adipose cells. The actin was used as an internal control of all the cells.

[4] = system: C57BL/6 mice; assay: Fat browning in subcutaneous and visceral adipose tissue slices of high fat diet mice (H&E stain); format: in vivo; conditions: 18 weeks old, BP oral 250 mg/kg-body weight daily from week 9, cells i.v. 4×10^5 every two weeks from week 11, vs HFD group
Experimental: (§3) The C57BL/6 mice (purchased from National Laboratory Animal Center, Taiwan) were bred in Laboratory Animal Center of China Medical University, Taiwan (conditions: 3 mice were bred per cage; the temperature of the breeding room ranged from 20° C. to 24° C., and the relative humidity ranged from 50% to 70%; the light cycle was 12 hours; sufficient water and normal diet were supplied daily) until they were 4 weeks old. Then, the mice were randomly divided into seven groups (six mice per group), and individually subjected to the following treatment and experimentation:
(§4) (3) Oral administration of butylidenephthalide (BP) group (i.e., “HFD+BP” group): the mice were continuously fed with a high fat diet, and then simultaneously administered with butylidenephthalide (BP) by oral route at the beginning of the ninth week (dosage amount: every day, 250 mg/kg-body weight) until they were 18 weeks old. […]
B2-3. […] The weight of the subcutaneous adipose tissue and visceral adipose tissue of mice were measured and recorded, and the collected organs were kept at a temperature of −80° C. for following experimentation and analysis. […]

[5] = system: C57BL/6 mice; assay: Accumulation of white fat: organ appearance and weight of subcutaneous and visceral adipose tissue of high fat diet mice; format: in vivo
Experimental: as §3
(§5) (3) Oral administration of butylidenephthalide (BP) group (i.e., “HFD+BP” group): the mice were continuously fed with a high fat diet, and then simultaneously administered with butylidenephthalide (BP) by oral route at the beginning of the ninth week (dosage amount: every day, 250 mg/kg-body weight) until they were 18 weeks old.
(§6) (4) Cell infusion of adipose stem cells group (i.e., “HFD+ADSC” group): the mice were continuously fed with a high fat diet, and then simultaneously administered with adipose stem cells by intravenous injection at the beginning of the eleventh week (dosage amount: every two weeks, 4×10^5 cells suspended in 100˜150 μL of normal saline) until they were 18 weeks old (four injections in total).
(5) Oral administration of butylidenephthalide (BP) in combination with cell infusion of adipose stem cells group (i.e., “HFD+BP+ADSC” group): the mice were continuously fed with a high fat diet, then simultaneously administered with butylidenephthalide (BP) by oral route at the beginning of the ninth week (dosage amount: every day, 250 mg/kg-body weight), and further simultaneously administered with adipose stem cells by intravenous injection at the beginning of the eleventh week (dosage amount: every two weeks, 4×10^5 cells suspended in 100˜150 μL of normal saline) until they were 18 weeks old (four injections in total). […]
B2-3. […] The weight of the subcutaneous adipose tissue and visceral adipose tissue of mice were measured and recorded, and the collected organs were kept at a temperature of −80° C. for following experimentation and analysis.
To understand whether butylidenephthalide (BP) can alleviate the accumulation of white fat or not, the photos of appearances of the liver, heart, kidney, subcutaneous adipose tissue and visceral adipose tissue of mice in each group recorded in Example B2-3 are shown in FIG. 6A. The weight of subcutaneous adipose tissue and visceral adipose tissue of mice in each group recorded in Example B2-3 were respectively averaged.

[6] = Change of mouse weight in high fat diet mice; format: in vivo; conditions: vs HFD group
Experimental: as §3, §4
B2-1. In the preparation process of above Example A2, the weight change of mice was recorded every week until they were 18 weeks old.
To understand whether butylidenephthalide (BP) is effective in inhibiting weight gain or not, the average value of the recorded weights of mice in each group of Example B2-1 was obtained weekly.

[7] = system: C57BL/6 mice; assay: Contents of glucose, triglycerides and total cholesterol in blood of high fat diet mice; format: in vivo
Experimental: as §3, §5, §6
(5) Oral administration of butylidenephthalide (BP) in combination with cell infusion of adipose stem cells group (i.e., “HFD+BP+ADSC” group): the mice were continuously fed with a high fat diet, then simultaneously administered with butylidenephthalide (BP) by oral route at the beginning of the ninth week (dosage amount: every day, 250 mg/kg-body weight), and further simultaneously administered with adipose stem cells by intravenous injection at the beginning of the eleventh week (dosage amount: every two weeks, 4×10^5 cells suspended in 100˜150 μL of normal saline) until they were 18 weeks old (four injections in total).
(6) Cell infusion of brown-like adipose cells group (i.e., “HFD+BLC” group): the mice were fed with a high fat diet, and then simultaneously administered with brown-like adipose cells provided by Example 1 by intravenous injection at the beginning of the eleventh week (dosage amount: every two weeks, 4×10^5 cells suspended in 100˜150 μL of normal saline) until they were 18 weeks old (four injections in total).
(7) Oral administration of butylidenephthalide (BP) in combination with cell infusion of brown-like adipose cells group (i.e., “HFD+BP+BLC” group): the mice were continuously fed with a high fat diet, then simultaneously administered with butylidenephthalide (BP) by oral route (dosage amount: every day, 250 mg/kg-body weight) at the beginning of the ninth week, and further simultaneously administered with brown-like adipose cells provided by Example 1 by intravenous injection at the beginning of the eleventh week (dosage amount: every two weeks, 4×10^5 cells suspended in 100˜150 μL of normal saline) until they were 18 weeks old (four injections in total).
B2-2. After Example B2-1 was accomplished, the mice was subjected to fast for 12 hours, and then the blood of mice was collected in a serum tube by cardic blood collection. The collected blood was stand for 30 minutes, and then subjected to centrifuge at 3000 rpm, 4° C. for 10 minutes. The supernatant thus provided was collected (i.e., blood sample) and kept at a temperature of 4° C. for following experimentation and analysis.
To understand whether butylidenephthalide (BP) is effective in reducing the contents of glucose, triglycerides and total cholesterol in blood or not, the blood sample of mice in each group provided by Example B2-2 was detected by a SYSMEX K-1000 and TOSHIBA TBA200FA automatic blood analyzer to analyze the contents of glucose, triglycerides and total cholesterol in blood of mice. The results of each group were averaged. Based on the result of “HFD” group, the relative contents of glucose, triglycerides and total cholesterol of each group were calculated.

[8] = 18 weeks old, BP oral 250 mg/kg-body weight daily from week 9, cells i.v. 4×10^5 every two weeks from week 11
[9] = based on the result of HFD group (100)
[10] = high fat diet mice, 18 weeks old, fasted 12 hours, BP oral 250 mg/kg-body weight daily, cells i.v. 4×10^5 every two weeks
[11] = high fat diet mice, vs HFD group

CCCC=C1OC(=O)c2ccccc21 [BP, butylidenephthalide]
content of adipose droplets (oil red stain, FIGS. 2A, 2B) ([1]; BP 2 μg/mL, vs adipose cells not treated by BP): contained more adipose droplets
adipose droplets in cells (microscope morphology, FIG. 1) ([1]; BP 10 μg/mL in conditional medium, vs undifferentiated adipose stem cells and differentiated adipose cells): contained more adipose droplets
content of adipose droplets (oil red stain, FIGS. 2A, 2B) ([1]; BP 10 μg/mL, vs adipose cells not treated by BP and other BP groups): highest content of adipose droplets
content of adipose droplets (oil red stain, FIGS. 2A, 2B) ([1]; BP 50 μg/mL, vs adipose cells not treated by BP): contained more adipose droplets
oxygen consumption rate (FIG. 3A) ([2]; BP 2 μg/mL): higher oxygen consumption rate
spare respiratory capacity (FIG. 3B) ([2]; BP 2 μg/mL): higher
oxygen consumption rate (FIG. 3A) ([2]; BP 10 μg/mL): higher oxygen consumption rate
spare respiratory capacity (FIG. 3B) ([2]; BP 10 μg/mL): higher
oxygen consumption rate (FIG. 3A) ([2]; BP 50 μg/mL): higher oxygen consumption rate
spare respiratory capacity (FIG. 3B) ([2]; BP 50 μg/mL): higher
increments of UCP1 gene and UCP1 protein compared with known drugs ([3]; BP 10 μg/mL vs tofacitinib 2 μM, adenosine 1 μM, proanthocyanidin 10 μM): higher than that of tofacitinib group, adenosine group and proanthocyanidin group
expression of UCP1 gene (RT-PCR, FIG. 4A) ([3]; BP 10 μg/mL, vs control group): significantly increased
expression of UCP1 protein (Western blot, FIG. 4B) ([3]; BP 10 μg/mL, vs control group): significantly increased
cell morphology of subcutaneous and visceral adipose tissue (FIGS. 5A, 5B) [4]: contained the brown adipose cells with numerous small adipose droplets
Subcutaneous adipose tissue (weight, average) [5, 8]: 0.24 g
Visceral adipose tissue (weight, average) [5, 8]: 0.57 g
accumulation condition of white fat in visceral (appearance, FIG. 6A) ([5]; vs HFD group): significantly alleviated
weights of subcutaneous fat and visceral fat, in words ([5]; vs HFD group): significantly lower
weights of mice (weight gain, 9 to 18 weeks old, FIG. 7) [6]: increased significantly less
Relative content of glucose [7, 9]: 85
Relative content of total cholesterol [7, 9]: 80
Relative content of triglycerides [7, 9]: 84
Glucose (serum) [7, 10]: 411.50 ± 43.50 mg/dL
Total cholesterol (serum) [7, 10]: 157.50 ± 1.50 mg/dL
Triglycerides (serum) [7, 10]: 213.50 ± 50.50 mg/dL
content of glucose in blood, in words [7, 11]: significantly lower
content of total cholesterol in blood (FIG. 8C; printed as triglycerides), in words [7, 11]: significantly lower
content of triglycerides in blood, in words [7, 11]: significantly lower
